Assay results taken from patent US10556888B2, “Pyrazole compounds or salts thereof, preparation methods therefor, herbicidal compositions and use thereof” (QINGDAO KINGAGROOT CHEMICAL COMPOUNDS CO., LTD, priority 2015, dated 2020).

Experiments:
[1] = system: Monocotyledonous and dicotyledonous weed; test: Post-emergence test experiment, weed control effect (Table 2); type: in vivo; parameters: key to weed control effect, Setaria viridis (level) / weed control effect, Rorippa indica (level) / weed control effect, Abutilon theophrasti (level) / weed control effect, Echinochloa crus-galli (level) / weed control effect, Digitaria sanguinalis (level): Level 10: completely dead; Level 9: above 90% growth inhibition rate; Level 8: above 80% growth inhibition rate; Level 7: above 70% growth inhibition rate; Level 6: above 60% growth inhibition rate; Level 5: above 50% growth inhibition rate; Level 4: above 30% growth inhibition rate; Level 3: above 20% growth inhibition rate; Level 2: above 10% growth inhibition rate; Level 1: above 1-10% growth inhibition rate; Level 0: no effect; conditions: 3 weeks after spraying, greenhouse
Method: (§1) Post-emergence test experiment: Monocotyledonous and dicotyledonous weed seeds and main crop seeds (i.e. wheat, corn, rice, soybean, cotton, oilseed, millet and sorghum.) were put into a plastic pot loaded with soil. Then covered with 0.5-2 cm soil, the seeds were allowed to grow in good greenhouse environment. The test plants were treated at 2-3 leaf stage 2-3 weeks after sowing. The test compounds of the invention were dissolved with acetone respectively, then added with 80 tween and diluted by certain amount of water to certain concentration. The solution was sprayed to the plants with a sprayer. Then the plants were cultured for 3 weeks in the greenhouse.

[2] = system: main crop (wheat, corn, rice, soybean, cotton, oilseed, millet and sorghum); test: Post-emergence test experiment, main crops (Table 2); type: in vivo; parameters: key: Level 10: completely dead; Level 9: above 90% growth inhibition rate; Level 8: above 80% growth inhibition rate; Level 7: above 70% growth inhibition rate; Level 6: above 60% growth inhibition rate; Level 5: above 50% growth inhibition rate; Level 4: above 30% growth inhibition rate; Level 3: above 20% growth inhibition rate; Level 2: above 10% growth inhibition rate; Level 1: above 1-10% growth inhibition rate; Level 0: no effect; conditions: 3 weeks after spraying, greenhouse
Method: as §1

## CCOCCOCc1c(S(C)(=O)=O)ccc(C(=O)c2c(C3CC3)nn(CC)c2OC(=O)c2cnn(C)c2OCC)c1C [Compound 86]
[1]; 30 g/ha
  weed control effect, Abutilon theophrasti (level): 6 (Level 6: above 60% growth inhibition rate)
  weed control effect, Bidens pilosa (level): 7 (Level 7: above 70% growth inhibition rate)
  weed control effect, Digitaria sanguinalis (level): 8 (Level 8: above 80% growth inhibition rate)
  weed control effect, Echinochloa crus-galli (level): 8 (Level 8: above 80% growth inhibition rate)
  weed control effect, Rorippa indica (level): 10
  weed control effect, Setaria viridis (level): 8 (Level 8: above 80% growth inhibition rate)
[2]; 30 g/ha
  effect on crop, corn (level): 0
  effect on crop, rice (level): 3 (Level 3: above 20% growth inhibition rate)
  effect on crop, wheat (level): 0

## COCCCOCc1c(S(C)(=O)=O)ccc(C(=O)c2cnn(C)c2OC(=O)c2cnn(C)c2)c1Cl [Compound 62]
[1]; 30 g/ha
  weed control effect, Abutilon theophrasti (level): 7 (Level 7: above 70% growth inhibition rate)
  weed control effect, Bidens pilosa (level): 7 (Level 7: above 70% growth inhibition rate)
  weed control effect, Digitaria sanguinalis (level): 7 (Level 7: above 70% growth inhibition rate)
  weed control effect, Echinochloa crus-galli (level): 10
  weed control effect, Rorippa indica (level): 10
  weed control effect, Setaria viridis (level): 7 (Level 7: above 70% growth inhibition rate)
[2]; 30 g/ha
  effect on crop, corn (level): 0
  effect on crop, rice (level): 3 (Level 3: above 20% growth inhibition rate)
  effect on crop, wheat (level): 0

## CCn1nc(C2CC2)c(C(=O)c2ccc(S(C)(=O)=O)c(Cn3cc(Cl)cn3)c2C)c1OC(=O)c1cn(C)nc1C [Compound 84]
[1]; 120 g/ha
  weed control effect, Abutilon theophrasti (level): 6 (Level 6: above 60% growth inhibition rate)
  weed control effect, Bidens pilosa (level): 6 (Level 6: above 60% growth inhibition rate)
  weed control effect, Digitaria sanguinalis (level): 1 (Level 1: above 1-10% growth inhibition rate)
  weed control effect, Echinochloa crus-galli (level): 10
  weed control effect, Rorippa indica (level): 4 (Level 4: above 30% growth inhibition rate)
  weed control effect, Setaria viridis (level): 3 (Level 3: above 20% growth inhibition rate)
[2]; 120 g/ha
  effect on crop, corn (level): 0
  effect on crop, rice (level): 0
  effect on crop, wheat (level): 0

## Cc1nn(C)cc1C(=O)Oc1c(C(=O)c2ccc(S(C)(=O)=O)c(COCC(F)(F)C(F)F)c2Cl)c(C)nn1C [Compound 35]
[1]; 30 g/ha
  weed control effect, Abutilon theophrasti (level): 7 (Level 7: above 70% growth inhibition rate)
  weed control effect, Bidens pilosa (level): 7 (Level 7: above 70% growth inhibition rate)
  weed control effect, Digitaria sanguinalis (level): 7 (Level 7: above 70% growth inhibition rate)
  weed control effect, Echinochloa crus-galli (level): 10
  weed control effect, Rorippa indica (level): 5 (Level 5: above 50% growth inhibition rate)
  weed control effect, Setaria viridis (level): 6 (Level 6: above 60% growth inhibition rate)
[2]; 30 g/ha
  effect on crop, corn (level): 1 (Level 1: above 1-10% growth inhibition rate)
  effect on crop, rice (level): 5 (Level 5: above 50% growth inhibition rate)
  effect on crop, wheat (level): 0

## CCOCc1c(S(C)(=O)=O)ccc(C(=O)c2c(C3CC3)nn(C(C)C)c2OC(=O)c2cn(C)nc2C)c1Cl [Compound 96]
[1]; 60 g/ha
  weed control effect, Abutilon theophrasti (level): 10
  weed control effect, Bidens pilosa (level): 8 (Level 8: above 80% growth inhibition rate)
  weed control effect, Digitaria sanguinalis (level): 8 (Level 8: above 80% growth inhibition rate)
  weed control effect, Echinochloa crus-galli (level): 10
  weed control effect, Rorippa indica (level): 10
  weed control effect, Setaria viridis (level): 10
[2]; 60 g/ha
  effect on crop, corn (level): 0
  effect on crop, rice (level): 4 (Level 4: above 30% growth inhibition rate)
  effect on crop, wheat (level): 0

## COCCCOCc1c(S(C)(=O)=O)ccc(C(=O)c2c(C3CC3)nn(C)c2OC(=O)c2cn(C)nc2C)c1Cl [Compound 52]
[1]; 30 g/ha
  weed control effect, Abutilon theophrasti (level): 7 (Level 7: above 70% growth inhibition rate)
  weed control effect, Bidens pilosa (level): 7 (Level 7: above 70% growth inhibition rate)
  weed control effect, Digitaria sanguinalis (level): 7 (Level 7: above 70% growth inhibition rate)
  weed control effect, Echinochloa crus-galli (level): 10
  weed control effect, Rorippa indica (level): 10
  weed control effect, Setaria viridis (level): 6 (Level 6: above 60% growth inhibition rate)
[2]; 30 g/ha
  effect on crop, corn (level): 1 (Level 1: above 1-10% growth inhibition rate)
  effect on crop, rice (level): 3 (Level 3: above 20% growth inhibition rate)
  effect on crop, wheat (level): 0

## Cc1cc(C)n(Cc2c(S(C)(=O)=O)ccc(C(=O)c3c(C)nn(C(C)C)c3OC(=O)c3nn(C)cc3Cl)c2Cl)n1 [Compound 103]
[1]; 120 g/ha
  weed control effect, Abutilon theophrasti (level): 7 (Level 7: above 70% growth inhibition rate)
  weed control effect, Bidens pilosa (level): 7 (Level 7: above 70% growth inhibition rate)
  weed control effect, Digitaria sanguinalis (level): 2 (Level 2: above 10% growth inhibition rate)
  weed control effect, Echinochloa crus-galli (level): 10
  weed control effect, Rorippa indica (level): 10
  weed control effect, Setaria viridis (level): 3 (Level 3: above 20% growth inhibition rate)
[2]; 120 g/ha
  effect on crop, corn (level): 1 (Level 1: above 1-10% growth inhibition rate)
  effect on crop, rice (level): 0
  effect on crop, wheat (level): 0

## CCOc1c(C(=O)Oc2c(C(=O)c3ccc(S(C)(=O)=O)c(Cn4cc(Cl)cn4)c3C)c(C)nn2CC)cnn1C [Compound 82]
[1]; 120 g/ha
  weed control effect, Abutilon theophrasti (level): 6 (Level 6: above 60% growth inhibition rate)
  weed control effect, Bidens pilosa (level): 6 (Level 6: above 60% growth inhibition rate)
  weed control effect, Digitaria sanguinalis (level): 1 (Level 1: above 1-10% growth inhibition rate)
  weed control effect, Echinochloa crus-galli (level): 10
  weed control effect, Rorippa indica (level): 4 (Level 4: above 30% growth inhibition rate)
  weed control effect, Setaria viridis (level): 3 (Level 3: above 20% growth inhibition rate)
[2]; 120 g/ha
  effect on crop, corn (level): 0
  effect on crop, rice (level): 0
  effect on crop, wheat (level): 0

## CC=CCOCc1c(S(C)(=O)=O)ccc(C(=O)c2c(C)nn(C)c2OC(=O)c2cn(C)nc2C)c1Cl [Compound 38]
[1]; 60 g/ha
  weed control effect, Abutilon theophrasti (level): 10
  weed control effect, Bidens pilosa (level): 8 (Level 8: above 80% growth inhibition rate)
  weed control effect, Digitaria sanguinalis (level): 8 (Level 8: above 80% growth inhibition rate)
  weed control effect, Echinochloa crus-galli (level): 8 (Level 8: above 80% growth inhibition rate)
  weed control effect, Rorippa indica (level): 10
  weed control effect, Setaria viridis (level): 10
[2]; 60 g/ha
  effect on crop, corn (level): 0
  effect on crop, rice (level): 1 (Level 1: above 1-10% growth inhibition rate)
  effect on crop, wheat (level): 0

## CCn1nc(C)c(C(=O)c2ccc(S(C)(=O)=O)c(COCC(F)(F)C(F)F)c2C)c1OC(=O)c1cnn(C)c1 [Compound 85]
[1]; 30 g/ha
  weed control effect, Abutilon theophrasti (level): 6 (Level 6: above 60% growth inhibition rate)
  weed control effect, Bidens pilosa (level): 7 (Level 7: above 70% growth inhibition rate)
  weed control effect, Digitaria sanguinalis (level): 8 (Level 8: above 80% growth inhibition rate)
  weed control effect, Echinochloa crus-galli (level): 9 (Level 9: above 90% growth inhibition rate)
  weed control effect, Rorippa indica (level): 10
  weed control effect, Setaria viridis (level): 8 (Level 8: above 80% growth inhibition rate)
[2]; 30 g/ha
  effect on crop, corn (level): 0
  effect on crop, rice (level): 3 (Level 3: above 20% growth inhibition rate)
  effect on crop, wheat (level): 0

## CCOCCOCc1c(S(C)(=O)=O)ccc(C(=O)c2c(C3CC3)nn(C)c2OC(=O)c2cnn(C)c2)c1Cl [Compound 74]
[1]; 30 g/ha
  weed control effect, Abutilon theophrasti (level): 7 (Level 7: above 70% growth inhibition rate)
  weed control effect, Bidens pilosa (level): 5 (Level 5: above 50% growth inhibition rate)
  weed control effect, Digitaria sanguinalis (level): 6 (Level 6: above 60% growth inhibition rate)
  weed control effect, Echinochloa crus-galli (level): 10
  weed control effect, Rorippa indica (level): 10
  weed control effect, Setaria viridis (level): 6 (Level 6: above 60% growth inhibition rate)
[2]; 30 g/ha
  effect on crop, corn (level): 0
  effect on crop, rice (level): 3 (Level 3: above 20% growth inhibition rate)
  effect on crop, wheat (level): 0

## CCOCc1c(S(C)(=O)=O)ccc(C(=O)c2c(CC)nn(C)c2OC(=O)c2cn(C)nc2C)c1Cl [Compound 31]
[1]; 30 g/ha
  weed control effect, Abutilon theophrasti (level): 7 (Level 7: above 70% growth inhibition rate)
  weed control effect, Bidens pilosa (level): 7 (Level 7: above 70% growth inhibition rate)
  weed control effect, Digitaria sanguinalis (level): 10
  weed control effect, Echinochloa crus-galli (level): 10
  weed control effect, Rorippa indica (level): 5 (Level 5: above 50% growth inhibition rate)
  weed control effect, Setaria viridis (level): 9 (Level 9: above 90% growth inhibition rate)
[2]; 30 g/ha
  effect on crop, corn (level): 0
  effect on crop, rice (level): 5 (Level 5: above 50% growth inhibition rate)
  effect on crop, wheat (level): 0

## CCOCc1c(S(C)(=O)=O)ccc(C(=O)c2c(C3CC3)nn(C)c2OC(=O)c2cnn(C)c2)c1Cl [Compound 70]
[1]; 30 g/ha
  weed control effect, Abutilon theophrasti (level): 7 (Level 7: above 70% growth inhibition rate)
  weed control effect, Bidens pilosa (level): 7 (Level 7: above 70% growth inhibition rate)
  weed control effect, Digitaria sanguinalis (level): 10
  weed control effect, Echinochloa crus-galli (level): 10
  weed control effect, Rorippa indica (level): 10
  weed control effect, Setaria viridis (level): 10
[2]; 30 g/ha
  effect on crop, corn (level): 3 (Level 3: above 20% growth inhibition rate)
  effect on crop, rice (level): 3 (Level 3: above 20% growth inhibition rate)
  effect on crop, wheat (level): 0
